Source: publication PMC9320560, “Structure-Based Identification and Biological Characterization of New NAPRT Inhibitors” (Pharmaceuticals, 2022)
Entries after “also recorded” stand apart in the source; their conditions may differ.

Tests used:
OVCAR-5 cells = test: Cell viability assay (SRB): sensitization of OVCAR-5 cells to FK866; format: cell-based; details: for combination index (CI) with FK866: 0.3 µM nicotinic acid in medium; for cell viability, single-agent treatment: 72 h, 100 nM FK866 alone or 1 mM 2-HNA alone
From the text: The first assay that we performed to test the putative NAPRT inhibitors was based on the principle that NAPRT-expressing OVCAR-5 cells are resistant to FK866 whereas the simultaneous chemical inhibition of NAPRT with 2-HNA renders the cells sensitive to the NAMPT inhibitor due to the cooperation between FK866 and 2-HNA in depleting the intracellular NAD pool. […] Thus, 2-HNA was used throughout the study as a positive control in our cell viability assay and any test compound resembling its activity was considered a potential NAPRT inhibitor. It is worth mentioning that, to reflect the physiological contribution of the Preiss–Handler pathway to NAD biosynthesis, all cell-based assays that are presented in this study were performed under a nicotinic acid concentration of 0.3 µM in the cell culture medium (Figure S1).
We decided to use combination index (CI) as a measure to determine the degree of interaction between FK866 and the test compounds i.e., to identify potential new NAPRT inhibitors. A CI < 1 indicates a synergistic interaction between the test compound and FK866 in decreasing cell viability. A CI = 1 and a CI > 1 are indicative of an additive and of an antagonistic effect, respectively.
A total of 3 × 10^3 OVCAR-5 cells/well were plated in 96-well plates in the regular culture medium. 24 h later the cell medium was removed and the cells were subsequently incubated either in the regular medium that was supplemented with 0.3 µM nicotinic acid (control wells) or in the treatment medium which contained 0.3 µM nicotinic acid and combinations of 100 nM FK866, 1 mM 2-HNA, and 100 µM of test compounds. Each condition was performed in triplicate and the cells remained under treatment for a total of 72 h at 37 °C. Thereafter, the culture plates were fixed with 10% trichloroacetic acid at 4 °C for 20 min, washed with cold water, and dried overnight. The plates were stained with 0.04% sulforhodamine B (SRB) in 1% acetic acid, washed four times with 1% acetic acid to remove the unbound dye, and dried overnight. Lastly, Trizma®-base 10 mM was added to the plates and cell viability was quantified by absorbance measurements on a Tecan Infinite® 200 PRO instrument.
To quantify the extent of the interaction between FK866 and the putative NAPRT inhibitors or 2-HNA, we applied the combination index (CI) equation that is depicted below:(1) CI=mortality % A+mortality % B /mortality % A+B where: ‘A’ refers to the treatment of cells with FK866 100 nM; ‘B’ refers to the treatment of cells with the test compound 100 µM or 2-HNA 1 mM; ‘A + B’ refers to the coadministration of FK866 100 nM and the test compound at 100 µM or 2-HNA 1 mM. A synergistic interaction is evidenced by CI < 1, additive effect produces CI close to 1, whereas CI > 1 corresponds to antagonistic effect.

[1] = test system: intracellular NAD+ levels in OVCAR-5 cells; test: Intracellular NAD+ quantification (enzyme cycling assay); format: cell-based; details: for interaction with FK866 in NAD+ reduction / drop in NAD+ levels: test compound 100 µM + 30 nM FK866, 20 h
Method: The assay that was performed on OVCAR-5 cell viability led to a set of potential NAPRT inhibitors, namely IM 29, IM 38, IM 43, IM 49, MMB-128, MMB-131, MMB-268, and MMB-312. In order to confirm that the cited compounds sensitized OVCAR-5 cells to the NAMPT inhibitor FK866 by interfering with NAD biosynthesis, we quantified the intracellular NAD^+ levels in OVCAR-5 cells after 20-h treatments with these compounds with or without FK866.
Figure 3 A subset of test compounds cooperates synergistically with FK866 in decreasing intracellular NAD^+ levels in OVCAR-5 cells. The compounds were administered to cells alone or in combination with FK866 for 20 h. Quantification of NAD^+ was performed via an enzyme cycling assay and normalized to cell lysate protein content. The results are the mean ± SD of two technical replicates with two biological replicates each. *, p < 0.05; **, p < 0.01; ***, p < 0.001 vs. the respective control, i.e., FK866-untreated control for the test compounds that were administered alone to cells, and FK866-treated control for the combinations of test compound and FK866; §, p < 0.05 versus FK866-untreated, control cells.
A total of 1 × 10^5 OVCAR-5 cells/well were plated in 24-well plates in the regular culture medium. 24 h later the cell medium was removed and the cells were cultured either in the regular medium that was supplemented with 0.3 µM nicotinic acid (control wells) or in the treatment medium (regular medium with 0.3 µM nicotinic acid and combinations of 30 nM FK866, 1 mM 2-HNA and 100 µM of test compounds). Each condition was performed in duplicate and the cells remained under treatment for a total of 20 h at 37 °C. Thereafter, the cell medium was removed and the cells were harvested and lysed with 0.6 M perchloric acid (PCA). Samples in PCA were neutralized by diluting the extracts in 100 mM sodium phosphate buffer (pH 8) and the total intracellular NAD^+ content was determined with a sensitive enzyme cycling assay that exploits the use of alcohol dehydrogenase. The obtained NAD^+ values were normalized to cell lysate protein content that was quantified by the Bradford method.

recombinant hNAPRT [2] = target: T1, recombinant hNAPRT (Homo sapiens, UniProt Q6XQN6); test: hNAPRT inhibition assay (HPLC of NA and NAMN); format: biochemical; details: for IC50: 100 µM nicotinic acid, 200 µM PRPP, 45 min at 37 °C, formation of NAMN
T1 construct: His-tag (C); made in house; host or cells: E. coli
T1 sequence (Q6XQN6 1-538): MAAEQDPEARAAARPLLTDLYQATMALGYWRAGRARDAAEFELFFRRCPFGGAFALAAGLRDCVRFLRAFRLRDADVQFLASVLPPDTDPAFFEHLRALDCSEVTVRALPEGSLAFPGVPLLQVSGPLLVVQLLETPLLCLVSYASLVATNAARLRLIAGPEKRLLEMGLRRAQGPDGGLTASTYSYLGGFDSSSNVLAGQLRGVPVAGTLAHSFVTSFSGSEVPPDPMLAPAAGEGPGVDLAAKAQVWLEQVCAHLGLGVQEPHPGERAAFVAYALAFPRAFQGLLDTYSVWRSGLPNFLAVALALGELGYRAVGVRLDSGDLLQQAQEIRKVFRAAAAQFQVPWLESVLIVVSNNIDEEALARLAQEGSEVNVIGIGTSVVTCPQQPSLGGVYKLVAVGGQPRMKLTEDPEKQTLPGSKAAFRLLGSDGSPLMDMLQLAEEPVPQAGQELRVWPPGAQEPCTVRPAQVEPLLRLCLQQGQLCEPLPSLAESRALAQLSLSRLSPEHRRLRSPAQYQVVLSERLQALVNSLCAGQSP
Method: hNAPRT was expressed in E. coli with an N-terminal His-tag and purified as described above. The enzymatic reactions were carried out at 37 °C in standard reaction mixtures containing 50 mM Tris-HCl, pH 7.4, 10 mM KCl, 2 mM MgCl2, 100 µM nicotinic acid, 200 µM PRPP, 0.1 mg/mL purified recombinant hNAPRT, and the test compound at five different concentrations ranging from 20 µM to 1000 µM.
Blank mixtures without compounds but with equal amounts of DMSO were set in parallel and their rates fixed as 100% activity. NAPRT was pre-incubated with the compounds for 5 min and reactions were started by the addition of the enzyme substrates and stopped after 45 min of incubation by heating to 85 °C for 3 min. Following centrifugation of the reaction mix, the supernatant was analyzed by HPLC by injection into a reverse-phase column (XTerra MS C18 Column, 125Å, 5 μm, 4.6 × 150 mm, Waters). The eluted species were monitored at 260 nm and the peaks of nicotinic acid and nicotinic acid mononucleotide were quantified with reference to standard curves. The percentage of nicotinic acid conversion was calculated for each reaction and the IC50 values for the active compounds were determined with GraphPad Prism 8 software (GraphPad Software, S. Diego, CA, USA).

recombinant hNAPRT [3] = target: T1, recombinant hNAPRT; test: hNAPRT melting temperature determination (DSF); format: binding; details: 100 μM inhibitor, 5 μM hNAPRT
Method: With the purpose to provide support to the results that were obtained in the enzymatic activity assay, the ability of the new hNAPRT inhibitors to stabilize the protein through binding was evaluated via the measurement of the hNAPRT melting temperature in the presence or absence of the inhibitors at a 100 μM concentration. The resulting Tm shifts are depicted in Figure 5. […] A plausible explanation for this outcome is that larger compounds are more likely to establish a higher number of interactions and thus result in greater stabilization of a given protein.
Figure 5 NAPRT inhibitors MMB-128 and MMB-131 directly engage recombinant hNAPRT. Differential scanning fluorimetry (DSF) was used to determine the thermal stabilization of hNAPRT protein upon inhibitor binding. Recombinant hNAPRT protein was exposed to 100 μM hNAPRT inhibitors over a defined temperature gradient and the melting temperature Tm was calculated for each compound. The data are shown as means ± standard error of the means (SEM) of two technical replicates with three biological replicates each. * p < 0.05; unpaired t-test.
The melting temperature ™ of hNAPRT was determined through the differential scanning fluorimetry (DSF) technique. Triplicates of 100 μM of each test compound and DMSO were added to a 96-well clear bottom BioRad PCR plate. Subsequently, DSF protein buffer, containing 5 μM of recombinant hNAPRT protein and 5X SPYRO® Orange (S5692, Sigma-Aldrich) in 20 mM HEPES pH 7.5, 100 mM NaCl, 10 mM Mg-acetate, and 1 mM DTT was added. The plate was sealed and exposed to a temperature gradient from 20 to 95 °C in a BioRad CFX96 Real-Time System. The fluorescence for each temperature increment was measured at 465–580 nm with an excitation wavelength of 465 nm. The DSF templates that were provided by Niesen et al. were used for data analysis followed by GraphPad Prism 8 for statistical analysis of the generated data.

[4] = Preparation of 50 mM stock solution in DMSO; format: physicochemical
Method: As noted in the methodology section, a 50 mM stock solution in DMSO was prepared for each compound.
Compounds were obtained in mg quantity and subsequently dissolved in DMSO to prepare a 50 mM stock solution. The purity of all compounds was > 95%, as declared by vendors or collaborators.

[5] = test compound 100 µM + 100 nM FK866, 72 h

## O=C(Cn1c(=O)sc2ccccc21)Nc1cccc(C(=O)O)c1 [IM 49]
OVCAR-5 cells; [5]
  cytotoxicity in combination with FK866: less pronounced cytotoxicity
[1]
  interaction with FK866 in NAD+ reduction: lower degree of synergism
[1]; test compound 100 µM alone, 20 h
  effect on intracellular NAD+ levels, compound alone: strongly reduced
Recombinant hNAPRT [2]
  IC50: 232 µM
Recombinant hNAPRT [3]
  Tm shift of hNAPRT: remained unchanged

## CC(Oc1ccccc1Cl)C(=O)Nc1cccc(C(=O)O)c1 (stereo not drawn) [IM 38]
OVCAR-5 cells; [5]
  cytotoxicity in combination with FK866: less pronounced cytotoxicity
[1]
  drop in NAD+ levels: 42.9–56.4%
Recombinant hNAPRT [2]
  IC50: 265 µM
Recombinant hNAPRT [3]
  Tm shift of hNAPRT: remained unchanged

## COc1cc(OC)cc(-c2cn(CC3NCC(O)C3O)nn2)c1 (stereo not drawn) [MMB-312]
OVCAR-5 cells; [5]
  cytotoxicity in combination with FK866: less pronounced cytotoxicity
OVCAR-5 cells; test compound 100 µM + 100 nM FK866, 72 h, CI < 1 synergistic
  combination index (CI) with FK866: 0.12
[1]
  interaction with FK866 in NAD+ reduction: additive effects

## OC1CNC(Cn2cc(-c3cc(C(F)(F)F)cc(C(F)(F)F)c3)nn2)C1O (stereo not drawn) [MMB-268]
OVCAR-5 cells; [5]
  cytotoxicity in combination with FK866: high cytotoxicity
[1]
  drop in NAD+ levels: 42.9–56.4%
Recombinant hNAPRT [2]; data not shown
  inhibition of hNAPRT: negligible inhibition

## O=C(O)c1cccnc1O [Compound 2-HNA, 2-hydroxynicotinic acid, reference compound]
OVCAR-5 cells; 1 mM 2-HNA + 100 nM FK866, 72 h
  cytotoxicity of co-treatment with FK866: pronounced cell death; also recorded: marked cytotoxicity
OVCAR-5 cells; 2-HNA 1 mM + 100 nM FK866, 72 h
  combination index (CI) with FK866: 0.08
OVCAR-5 cells
  cell viability, single-agent treatment: withstood
[1]; 1 mM 2-HNA + 30 nM FK866, 20 h
  drop in intracellular NAD+ concentration: 86%

## COc1ccc2cc(C=O)c(O)nc2c1 [IM 43]
OVCAR-5 cells; [5]
  cytotoxicity in combination with FK866: high cytotoxicity
[1]
  interaction with FK866 in NAD+ reduction: additive effects

## CC(C)(C)C(=O)OCCCn1cc(CCCN2CC(O)C(O)C2CNC(=O)c2ccccc2)nn1 (stereo not drawn) [MMB-128]
OVCAR-5 cells; [5]
  cytotoxicity in combination with FK866: high cytotoxicity
[1]
  drop in NAD+ levels: 42.9–56.4%
Recombinant hNAPRT [3]
  Tm shift of hNAPRT: approximately 0.5 °C

## Cc1cc(C(=O)O)nc(N)n1 [IM 28]
[4]
  solubility in DMSO: could not be solubilized

## CC(C)(C)C(=O)OCCCn1cc(CCCN2CC(O)C(O)C2Cn2cc(-c3ccccc3)nn2)nn1 (stereo not drawn) [MMB-131]
OVCAR-5 cells; [5]
  cytotoxicity in combination with FK866: less pronounced cytotoxicity
[1]
  drop in NAD+ levels: 42.9–56.4%
Recombinant hNAPRT [2]
  IC50: 242 µM
Recombinant hNAPRT [3]
  Tm shift of hNAPRT: approximately 0.5 °C

## O=C(/C=C/c1cccnc1)NCCCCC1CCN(C(=O)c2ccccc2)CC1 [FK866, reference compound]
OVCAR-5 cells
  cell viability, single-agent treatment: withstood
[1]; 30 nM FK866 alone, 20 h
  decrease of intracellular NAD+ levels: 24%

## NCc1cc2c(cc1Cl)OCO2 [IM 29]
OVCAR-5 cells; [5]
  cytotoxicity in combination with FK866: high cytotoxicity
[1]; combination with FK866
  potentiation of the effect of FK866 in reducing intracellular NAD levels: more than two-fold
[1]
  drop in NAD+ levels: 42.9–56.4%
Recombinant hNAPRT [2]
  IC50: 160 µM
Recombinant hNAPRT [3]
  Tm shift of hNAPRT: remained unchanged
